Reference: article PMC8198871, “Suppression of Breast Cancer by Small Molecules That Block the Prolactin Receptor” (Cancers, 2021)

What was measured:
[1] = target: T1, prolactin receptor (PRLR) (Homo sapiens, UniProt P16471); assay: microscale thermophoresis; confirmed by isothermal titration calorimetry; type: binding
T1 construct: extracellular domain (ECD), purified recombinant
T1 sequence (P16471 25-234 limits assumed): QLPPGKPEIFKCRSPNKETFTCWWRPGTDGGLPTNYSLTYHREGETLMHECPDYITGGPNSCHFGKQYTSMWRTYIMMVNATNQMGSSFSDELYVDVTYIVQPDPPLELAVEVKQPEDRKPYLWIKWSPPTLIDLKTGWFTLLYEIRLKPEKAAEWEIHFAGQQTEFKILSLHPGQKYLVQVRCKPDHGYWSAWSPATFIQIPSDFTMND

[2] = target: serotonin receptor 2A (HTR2A) (Homo sapiens, UniProt P28223); assay: DiscoverX GPCR selectivity panel, multiple doses; type: cell-based
Chain of serotonin receptor 2A (HTR2A) (P28223 whole entry): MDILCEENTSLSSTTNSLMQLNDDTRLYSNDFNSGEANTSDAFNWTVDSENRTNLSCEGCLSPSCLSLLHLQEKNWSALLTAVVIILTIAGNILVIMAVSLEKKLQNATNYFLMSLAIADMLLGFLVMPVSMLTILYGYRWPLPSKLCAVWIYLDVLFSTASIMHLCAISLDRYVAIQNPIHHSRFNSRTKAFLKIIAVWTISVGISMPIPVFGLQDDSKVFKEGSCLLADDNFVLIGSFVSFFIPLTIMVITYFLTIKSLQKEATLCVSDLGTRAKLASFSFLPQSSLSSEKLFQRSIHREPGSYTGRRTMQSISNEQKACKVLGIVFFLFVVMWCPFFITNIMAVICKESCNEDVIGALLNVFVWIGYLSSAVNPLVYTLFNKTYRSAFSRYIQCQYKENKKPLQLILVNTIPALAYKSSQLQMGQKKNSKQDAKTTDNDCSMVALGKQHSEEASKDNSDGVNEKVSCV

[3] = target: T2, hypocretin receptor 1 (HCRTR1) (Homo sapiens, UniProt O43613); assay: DiscoverX GPCR selectivity panel, multiple doses; type: cell-based
T2 sequence (O43613 1-425): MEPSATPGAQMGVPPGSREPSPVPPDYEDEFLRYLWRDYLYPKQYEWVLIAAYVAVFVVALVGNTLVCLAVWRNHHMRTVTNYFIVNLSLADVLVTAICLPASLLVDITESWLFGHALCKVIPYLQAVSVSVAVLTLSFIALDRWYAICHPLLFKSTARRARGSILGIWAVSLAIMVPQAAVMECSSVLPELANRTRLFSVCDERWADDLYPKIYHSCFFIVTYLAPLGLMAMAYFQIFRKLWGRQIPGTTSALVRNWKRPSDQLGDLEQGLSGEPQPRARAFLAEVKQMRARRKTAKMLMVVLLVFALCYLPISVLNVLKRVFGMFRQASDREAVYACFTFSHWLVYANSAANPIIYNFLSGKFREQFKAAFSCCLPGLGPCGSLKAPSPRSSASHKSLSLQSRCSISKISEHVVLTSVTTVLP

[4] = target: T3, serotonin receptor 2C (HTR2C) (Homo sapiens, UniProt P28335); assay: DiscoverX GPCR selectivity panel, multiple doses; type: cell-based
T3 sequence (P28335 33-458): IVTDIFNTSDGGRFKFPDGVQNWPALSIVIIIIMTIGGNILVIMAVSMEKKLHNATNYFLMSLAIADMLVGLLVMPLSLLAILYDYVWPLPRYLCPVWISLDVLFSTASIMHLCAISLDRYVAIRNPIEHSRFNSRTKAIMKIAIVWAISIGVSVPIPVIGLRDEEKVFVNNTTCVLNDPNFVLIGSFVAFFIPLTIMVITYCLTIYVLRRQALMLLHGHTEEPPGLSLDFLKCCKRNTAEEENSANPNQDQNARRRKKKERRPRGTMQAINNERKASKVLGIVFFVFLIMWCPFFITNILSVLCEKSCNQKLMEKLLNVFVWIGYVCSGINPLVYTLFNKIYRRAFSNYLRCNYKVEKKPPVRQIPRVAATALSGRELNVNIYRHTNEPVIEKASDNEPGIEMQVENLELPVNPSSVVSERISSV

Kd [1]: 3.31 µM | IC50 [2]: 2.39 µM | IC50 [3]: 6.71 µM | IC50 [4]: 3.48 µM
Structure (SMILES): CCN(CC)c1ccc(/C=N/NC(=O)c2c(Cl)cnn2C)c(O)c1 [SMI-6]
